Test results taken from paper PMC9329353, “Structures of Atm1 provide insight into [2Fe-2S] cluster export from mitochondria” (Nature Communications, 2022).

How the values were obtained:
[1] = biological target: T1, CtAtm1 (Thermochaetoides thermophila, UniProt G0SBE6, E603Q); assay: cryo-EM structure, […] Å; conditions: nanodiscs, 1 mM ATP, 1 mM GSSG, 1 mM MgCl2; occluded state; nucleotide-binding domains
T1 construct: gene CTHT_0050000; full-length, C-terminal TEV site and His8 (pET-52b-CtATM1-TEV-His8), E. coli C43(DE3); DDM or MSP1D1 nanodiscs; homodimer; first 94 and last 26 residues not modelled (580 modelled)

[2] = biological target: T2, CtAtm1 (Thermochaetoides thermophila, UniProt G0SBE6); assay: ATPase assay (phosphate release, absorbance at […] nm); type: biochemical; conditions: 1 mM ATP, 5 mM MgCl2, 37 °C, detergent or nanodisc; no exogenous cargo
T2 construct: gene CTHT_0050000; full-length, C-terminal TEV site and His8 (pET-52b-CtATM1-TEV-His8), E. coli C43(DE3); DDM or MSP1D1 nanodiscs; homodimer; first 94 and last 26 residues not modelled (580 modelled)

[3] = biological target: CtAtm1 (ABC transporter of mitochondria 1 from Chaetomium thermophilum), wild type (Chaetomium thermophilum); assay: cryo-EM structure; wild-type CtAtm1 in lipid nanodiscs (MSP1D1), incubated with 1 mM ATP and 2 mM MgCl2 for 30 min on ice, no cargo added; inward-facing open state, 3.0 Å

T2 sequence (G0SBE6 entry or part of it): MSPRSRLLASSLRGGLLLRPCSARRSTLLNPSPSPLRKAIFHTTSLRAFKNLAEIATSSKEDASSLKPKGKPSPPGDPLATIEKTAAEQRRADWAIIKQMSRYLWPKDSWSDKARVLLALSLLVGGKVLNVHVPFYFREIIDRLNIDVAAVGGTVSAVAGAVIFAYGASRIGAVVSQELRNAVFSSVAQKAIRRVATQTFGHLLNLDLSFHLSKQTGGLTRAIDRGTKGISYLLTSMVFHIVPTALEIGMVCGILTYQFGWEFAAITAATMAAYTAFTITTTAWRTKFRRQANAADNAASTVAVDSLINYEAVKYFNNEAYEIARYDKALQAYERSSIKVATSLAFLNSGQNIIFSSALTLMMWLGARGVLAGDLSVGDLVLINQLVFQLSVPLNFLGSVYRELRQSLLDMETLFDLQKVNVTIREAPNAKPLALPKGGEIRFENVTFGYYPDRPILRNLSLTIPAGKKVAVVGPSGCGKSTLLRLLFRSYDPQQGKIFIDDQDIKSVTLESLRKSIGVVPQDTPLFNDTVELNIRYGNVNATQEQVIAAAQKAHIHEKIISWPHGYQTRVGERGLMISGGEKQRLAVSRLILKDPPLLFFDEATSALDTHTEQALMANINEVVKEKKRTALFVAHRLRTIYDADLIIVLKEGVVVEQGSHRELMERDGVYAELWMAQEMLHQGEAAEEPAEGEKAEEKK
T1 sequence (G0SBE6 entry or part of it E603Q): as the sequence (G0SBE6 entry or part of it) above, with E603Q counted along it

stoichiometry N [3]	Molecule	cryo-EM structure, 2.8 Å [1]	ATPase assay (phosphate release, absorbance at 620 nm) [2]
	Nc1ncnc2c1ncn2[C@@H]1O[C@H](COP(=O)(O)OP(=O)(O)OP(=O)(O)O)[C@@H](O)[C@H]1O [ATP]	two ATP molecules are readily identified in the cryo-EM density	exhibited clear and comparably robust ATP hydrolysis activity in detergent solution
2	CtAtm1 (ABC transporter of mitochondria 1 from Chaetomium thermophilum), wild type (natural protein)		
